Test results taken from patent publication US6613760B1, “Indole derivatives and their use as MCP-1 receptor antagonists” (AstraZeneca AB, priority 1999, dated 2003).

Columns and labels:
MCP-1 receptor B (CCR2B) = target: T1, MCP-1 receptor B (CCR2B) (Homo sapiens, UniProt P41597); assay: hMCP-1 receptor binding assay, 125I MCP-1 on CHO-CCR2B cell membranes
T1 construct: expressed in transfected cells; host or cells: CHO-K1 (clone 7, CHO-CCR2B), membrane fragments
T1 sequence (P41597 1-360 isoform P41597-2): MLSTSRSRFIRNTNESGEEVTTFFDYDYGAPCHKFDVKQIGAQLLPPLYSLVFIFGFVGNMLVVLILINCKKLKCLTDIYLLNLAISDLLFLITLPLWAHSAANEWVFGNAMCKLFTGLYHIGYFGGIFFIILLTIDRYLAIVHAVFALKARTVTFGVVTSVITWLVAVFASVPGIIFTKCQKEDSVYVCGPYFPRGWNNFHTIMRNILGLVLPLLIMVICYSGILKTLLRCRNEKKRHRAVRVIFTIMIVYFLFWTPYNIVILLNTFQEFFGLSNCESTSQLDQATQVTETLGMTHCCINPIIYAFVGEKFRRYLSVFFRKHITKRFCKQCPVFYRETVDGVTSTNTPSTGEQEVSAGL
Description: The MCP-1 receptor B (CCR2B) cDNA was cloned by PCR from THP-1 cell RNA using suitable oligonucleotide primers based on the published MCP-1 receptor sequences (Charo et al., 1994, Proc. Natl. Acad. Sci. USA, 91, 2752). The resulting PCR products were cloned into vector PCR-II™ (InVitrogen, San Diego, Calif.). Error free CCR2B cDNA was subcloned as a Hind III-Not I fragment into the eukaryotic expression vector pCDNA3 (InVitrogen) to generate pCDNA3/CC-CKR2A and pCDNA3/CCR2B respectively.
Linearised pCDNA3/CCR2B DNA was transfected into CHO-K1 cells by calcium phosphate precipitation (Wigler et al., 1979, Cell, 16, 777). Transfected cells were selected by the addition of Geneticin Sulphate (G418, Gibco BRL) at 1 mg/ml, 24 hours after the cells had been transfected. Preparation of RNA and Northern blotting were carried out as described previously (Needham et al., 1995, Prot. Express. Purific., 6. 134). CHO-K1 clone 7 (CHO-CCR2B) was identified as the highest MCP-1 receptor B expressor.
CHO-CCR2B cells were grown in DMEM supplemented with 10% foetal calf serum, 2 mM glutamine. 1×Non-Essential Amino Acids. 1×Hypoxanthine and Thymidine Supplement and Penicillin-Streptomycin (at 50 μg streptomycin/ml, Gibco BRL). Membrane fragments were prepared using cell lysis/differential centrifugation methods as described previously (Siciliano et al., 1990, J. Biol. Chem., 265, 19658). […]

THP-1 cells [1] = assay: MCP-1 mediated calcium flux in THP-1 cells; format: cell-based, human; conditions: stimulation of THP-1 cells with hMCP-1; read-out: EC50 of rise in [Ca2+]i
Experimental: The human monocytic cell line THP-1 as grown in a synthetic cell culture medium RPMI 1640 supplemented with 10% foetal calf serum, 6 mM glutamine and Penicillin-Streptomycin (at 50 μg streptomycin/ml, Gibco BRL). THP-1 cells were washed in HBSS (lacking Ca^2+ and Mg^2+)+1 mg/ml BSA and resuspended in the same buffer at a density of 3×10^6 cells/ml. The cells were then loaded with […] FURA-2/AM for 30 min at 37° C., washed twice in HBSS, and resuspended at 1×10^6 cells/mil. THP-1 cell suspension (0.9 ml) was added to a 5 ml disposable cuvette containing a magnetic stirrer bar and 2.1 ml of prewarmed (37° C.) HBSS containing 1 mg/ml BSA, 1 mM MgCl, and 2 mM CaCl2. The cuvette was placed in a fluorescence spectrophotometer (Perkin Elmer, Norwalk. Conn.) and preincubated for 4 min at 37° C. with stirring. Fluorescence was recorded over 70 sec and cells were stimulated by addition of hMCP-1 to the cuvette after 10 sec. [Ca^2+]i was measured by excitation at 340 nm and 380 nm alternately and subsequent measurement of the intensity of the fluorescence emission at 510 nm.
where the Kd for FURA-2 Ca^2+ complex at 37° C. was taken to be 224 nm. […]

THP-1 cells [2] = assay: hMCP-1 mediated chemotaxis of THP-1 cells; format: cell-based, human; conditions: biphasic response
Experimental: In vitro chemotaxis assays were performed using the human monocytic cell line THP-1. Cell migration through polycarbonate membranes was measured by enumerating those passing through either directly by Coulter counting or indirectly by use of a colourimetric viability assay measuring the cleavage of a tetrazolium salt by the mitochondrial respiratory chain (Scudiero D. A. et al. 1988, Cancer Res., 48, 4827-4833).
Chemoattractants were introduced into a 96-well microtitre plate which forms the lower well of a chemotaxis chamber fitted with a PVP-free 5 μm poresize polycarbonate adhesive framed filter membrane (NeuroProbe MB series, Cabin John, Md. 20818. USA) according to the manufacturer's instructions. […] The plate was incubated at 37° C. for 3 h and the absorbance of the soluble formazan product was read on a microtitre plate reader at 450 nm. The data was input into a spreadsheet, corrected for any random migration in the absence of chemoattractant and the average absorbance values, standard error of the mean, and significance tests were calculated. hMCP-1 induced concentration dependent cell migration with a characteristic biphasic response, maximal […]. […]

hMCP-1 receptor = target: T2, hMCP-1 receptor (Homo sapiens, UniProt P41597); assay: 125I MCP-1 binding to human peripheral blood mononuclear cells (PBMCs); conditions: 100 pM 125I-labeled MCP-1, 37° C. 60 minutes
T2 construct: endogenous in cells; host or cells: human PBMCs from fresh donor blood (whole cells)
T2 sequence (P41597 1-360 isoform P41597-2): T1 sequence (P41597 1-360 isoform P41597-2)
Experimental: Fresh human blood (200 ml) was obtained from volunteer donors, collected into sodium citrate anticoagulant to give a final concentration of 0.38%. The blood was mixed with Sedimentation Buffer and incubated at 37° C. for 20 minutes. The supernatant was collected and centrifuged at 1700 rpm for 5 minutes (Sorvall RT6000D). The pellet obtained was resuspended in 20 ml RPMI/BSA (1 mg/ml) and 4×5 mls of cells were carefully layered over 4×5 mls of Lymphoprepa (Nycomed) in 15 ml centrifuge tubes. Tubes were spun at 1700 rpm for 30 minutes (Sorvall RT6000D) and the resultant layer of cells was removed and transferred to 50 ml Falcon tubes. The cells were washed twice in Lysis Buffer to remove any remaining red blood cells followed by 2 washes in RPMI/BSA. Cells were resuspended in 5 mls of Binding Buffer. Cell number was measured on a Coulter counter and additional binding buffer was added to give a final concentration of 1.25×10^7 PBMCs/ml. […]
Test compound potency was determined by assay in duplicate using six point dose-response curves and IC50 concentrations were determined.

| IC50 (MCP-1 receptor B (CCR2B); cold competition with 100 pM 125I-labeled MCP-1, CHO-CCR2B membrane fragments) | Kd (MCP-1 receptor B (CCR2B); equilibrium binding, CHO-CCR2B membrane fragments) | EC50 (THP-1 cells [1]) | IC50 (hMCP-1 receptor) | Molecule | concentration of maximal cell migration (THP-1 cells [2]) |
| --- | --- | --- | --- | --- | --- |
| 0.11 nM | 0.12 nM | ~2 nM |  | MCP-1: Human Monocyte Chemoattractant Protein-1, a C—C chemokine, ligand of the MCP-1 (CCR2) receptor | 0.5-1.0 nm |
|  |  |  | 640 nM | CS(=O)(=O)NCCNC(=O)c1cccc2c1cc(C(=O)O)n2Cc1ccc(Cl)c(Cl)c1 [Compound 9] |  |
